One compound from article PMC8799717, “Pharmacological targeting PIKfyve and tubulin as an effective treatment strategy for double-hit lymphoma” (Cell Death Discovery, 2022) can be followed below.

SMILES strings stand for the structures.

Some targets named below: EGFR(G719S) (Homo sapiens, UniProt P00533, G719S); PAK3 (Homo sapiens, UniProt O75914); CSNK1E (Homo sapiens, UniProt P49674); PAK1 (Homo sapiens, UniProt Q13153); FLT3(D835V) (Homo sapiens, UniProt P36888, D835V); WNK4 (Homo sapiens, UniProt Q96J92); CDKL5 (Homo sapiens, UniProt O76039); PRKCQ (Homo sapiens, UniProt Q04759); CSK (Homo sapiens, UniProt P41240); MET (Homo sapiens, UniProt P08581); IRAK1 (Homo sapiens, UniProt P51617); EPHA2 (Homo sapiens, UniProt P29317); RIPK2 (Homo sapiens, UniProt O43353); NEK5 (Homo sapiens, UniProt Q6P3R8); RIOK2 (Homo sapiens, UniProt Q9BVS4); DYRK1A (Homo sapiens, UniProt Q13627); CIT (Homo sapiens, UniProt O14578).

What all share (test): biochemical
Design in all cases: KINOMEscan active-site-directed competition binding panel, 468 kinases, percent of DMSO control at 1 uM
What all share (conditions): KINOMEscan binding, percent of DMSO control; read-out: Ctrl%

Assay [1] deals with T1, ABL1(F317I)-nonphosphorylated (Homo sapiens, UniProt P00519, F317I).
T1 construct: nonphosphorylated

Another assay addresses T2, MRCKB (Homo sapiens, UniProt Q9Y5S2).
T2 construct: gene CDC42BPB

For the next assay, the target named is T3, YANK3 (Homo sapiens, UniProt Q86UX6).
T3 construct: gene STK32C
T3 sequence (Q86UX6 whole entry): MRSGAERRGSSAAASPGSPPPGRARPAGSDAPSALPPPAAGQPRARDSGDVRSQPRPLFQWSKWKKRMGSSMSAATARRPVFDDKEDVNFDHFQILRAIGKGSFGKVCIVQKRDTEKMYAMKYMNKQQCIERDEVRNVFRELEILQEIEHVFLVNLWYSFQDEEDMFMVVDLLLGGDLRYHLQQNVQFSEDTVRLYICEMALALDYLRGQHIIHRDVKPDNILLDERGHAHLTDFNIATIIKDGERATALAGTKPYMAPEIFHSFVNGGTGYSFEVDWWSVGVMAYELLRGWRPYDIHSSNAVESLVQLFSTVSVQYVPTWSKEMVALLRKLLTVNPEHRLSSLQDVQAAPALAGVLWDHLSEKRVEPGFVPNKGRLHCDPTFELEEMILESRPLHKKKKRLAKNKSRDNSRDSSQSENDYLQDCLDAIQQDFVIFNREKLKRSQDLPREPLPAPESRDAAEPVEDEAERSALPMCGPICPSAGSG

A further assay has as its target T4, YANK1 (Homo sapiens, UniProt Q8WU08).
T4 construct: gene STK32A

Another assay has as its target T5, DCAMKL3 (Homo sapiens, UniProt Q9C098).
T5 construct: gene DCLK3

Another assay concerns the target T6, TIE2 (Homo sapiens, UniProt Q02763).
T6 construct: gene TEK

The next assay addresses T7, MEK1 (Homo sapiens, UniProt Q02750).
T7 construct: gene MAP2K1

PAK1, sequence (Q13153 whole entry): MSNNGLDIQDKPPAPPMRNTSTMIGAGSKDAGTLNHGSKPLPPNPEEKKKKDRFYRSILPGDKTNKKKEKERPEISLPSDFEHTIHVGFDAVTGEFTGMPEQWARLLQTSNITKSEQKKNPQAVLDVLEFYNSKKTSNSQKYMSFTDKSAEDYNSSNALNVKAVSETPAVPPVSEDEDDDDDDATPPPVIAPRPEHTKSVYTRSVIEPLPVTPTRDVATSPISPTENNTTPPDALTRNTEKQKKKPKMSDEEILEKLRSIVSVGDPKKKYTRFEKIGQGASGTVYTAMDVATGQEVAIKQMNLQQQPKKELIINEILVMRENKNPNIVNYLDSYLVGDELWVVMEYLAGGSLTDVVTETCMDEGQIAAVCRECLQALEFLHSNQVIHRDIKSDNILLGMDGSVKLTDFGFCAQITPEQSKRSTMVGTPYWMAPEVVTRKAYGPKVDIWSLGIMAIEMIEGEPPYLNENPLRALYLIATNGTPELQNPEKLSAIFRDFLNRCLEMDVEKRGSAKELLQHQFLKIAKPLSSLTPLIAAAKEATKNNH
EPHA2, sequence (P29317 whole entry): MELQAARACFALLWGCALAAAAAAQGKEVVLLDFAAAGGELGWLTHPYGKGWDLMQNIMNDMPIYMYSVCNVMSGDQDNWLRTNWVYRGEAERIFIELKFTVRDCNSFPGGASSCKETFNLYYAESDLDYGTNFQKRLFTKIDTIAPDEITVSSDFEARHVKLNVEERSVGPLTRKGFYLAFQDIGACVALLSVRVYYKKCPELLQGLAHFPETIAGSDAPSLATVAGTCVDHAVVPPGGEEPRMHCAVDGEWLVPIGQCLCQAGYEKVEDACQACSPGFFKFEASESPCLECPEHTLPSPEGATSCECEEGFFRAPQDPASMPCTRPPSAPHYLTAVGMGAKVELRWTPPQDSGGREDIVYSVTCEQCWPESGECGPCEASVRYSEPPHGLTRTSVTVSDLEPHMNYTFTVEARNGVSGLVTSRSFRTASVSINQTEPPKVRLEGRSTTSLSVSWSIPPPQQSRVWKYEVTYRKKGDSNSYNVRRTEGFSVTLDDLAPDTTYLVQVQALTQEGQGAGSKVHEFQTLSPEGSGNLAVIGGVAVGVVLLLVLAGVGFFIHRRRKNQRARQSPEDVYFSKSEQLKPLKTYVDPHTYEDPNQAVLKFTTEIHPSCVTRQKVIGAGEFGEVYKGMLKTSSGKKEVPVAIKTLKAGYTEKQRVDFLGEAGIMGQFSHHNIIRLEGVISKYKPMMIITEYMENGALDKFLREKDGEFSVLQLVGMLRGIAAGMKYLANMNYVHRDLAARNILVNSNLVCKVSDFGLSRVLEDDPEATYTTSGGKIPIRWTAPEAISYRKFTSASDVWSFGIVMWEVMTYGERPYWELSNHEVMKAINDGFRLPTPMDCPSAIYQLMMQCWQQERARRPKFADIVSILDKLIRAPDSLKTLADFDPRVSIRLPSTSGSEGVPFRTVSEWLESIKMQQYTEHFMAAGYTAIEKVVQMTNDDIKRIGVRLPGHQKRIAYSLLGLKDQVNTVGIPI
T5 sequence (Q9C098 whole entry): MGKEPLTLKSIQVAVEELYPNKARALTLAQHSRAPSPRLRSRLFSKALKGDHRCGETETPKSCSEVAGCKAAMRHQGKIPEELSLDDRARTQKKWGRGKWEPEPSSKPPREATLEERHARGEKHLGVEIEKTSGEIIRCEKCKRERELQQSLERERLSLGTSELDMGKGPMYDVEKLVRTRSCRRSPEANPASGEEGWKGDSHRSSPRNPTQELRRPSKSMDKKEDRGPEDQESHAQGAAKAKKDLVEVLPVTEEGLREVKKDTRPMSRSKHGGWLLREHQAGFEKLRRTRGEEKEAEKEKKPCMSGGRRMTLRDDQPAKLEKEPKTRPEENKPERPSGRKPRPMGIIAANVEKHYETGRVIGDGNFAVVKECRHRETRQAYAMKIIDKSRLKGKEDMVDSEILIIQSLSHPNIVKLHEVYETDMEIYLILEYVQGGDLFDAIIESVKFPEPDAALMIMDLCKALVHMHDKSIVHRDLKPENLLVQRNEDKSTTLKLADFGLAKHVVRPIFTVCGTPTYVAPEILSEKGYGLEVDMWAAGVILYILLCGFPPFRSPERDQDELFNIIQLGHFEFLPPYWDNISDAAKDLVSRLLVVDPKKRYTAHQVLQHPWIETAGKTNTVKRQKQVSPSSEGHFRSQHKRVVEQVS
NEK5, sequence (Q6P3R8 whole entry): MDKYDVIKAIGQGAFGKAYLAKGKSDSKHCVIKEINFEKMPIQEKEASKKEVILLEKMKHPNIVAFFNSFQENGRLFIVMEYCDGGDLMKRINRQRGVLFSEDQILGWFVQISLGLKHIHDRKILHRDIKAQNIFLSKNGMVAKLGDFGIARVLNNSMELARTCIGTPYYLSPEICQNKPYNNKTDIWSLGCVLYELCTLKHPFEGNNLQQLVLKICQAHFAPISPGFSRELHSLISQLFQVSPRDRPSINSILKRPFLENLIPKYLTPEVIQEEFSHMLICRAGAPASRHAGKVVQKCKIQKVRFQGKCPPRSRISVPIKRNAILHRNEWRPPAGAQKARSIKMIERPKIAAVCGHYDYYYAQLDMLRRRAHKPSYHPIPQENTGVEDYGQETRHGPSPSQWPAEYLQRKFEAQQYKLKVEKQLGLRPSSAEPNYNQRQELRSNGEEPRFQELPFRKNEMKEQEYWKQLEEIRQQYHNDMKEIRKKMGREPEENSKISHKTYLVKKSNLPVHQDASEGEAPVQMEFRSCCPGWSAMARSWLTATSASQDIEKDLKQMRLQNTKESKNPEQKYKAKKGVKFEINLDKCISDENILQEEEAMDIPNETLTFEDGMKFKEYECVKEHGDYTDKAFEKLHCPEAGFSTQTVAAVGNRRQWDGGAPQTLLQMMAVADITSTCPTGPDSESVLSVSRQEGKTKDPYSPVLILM
CSNK1E, sequence (P49674 whole entry): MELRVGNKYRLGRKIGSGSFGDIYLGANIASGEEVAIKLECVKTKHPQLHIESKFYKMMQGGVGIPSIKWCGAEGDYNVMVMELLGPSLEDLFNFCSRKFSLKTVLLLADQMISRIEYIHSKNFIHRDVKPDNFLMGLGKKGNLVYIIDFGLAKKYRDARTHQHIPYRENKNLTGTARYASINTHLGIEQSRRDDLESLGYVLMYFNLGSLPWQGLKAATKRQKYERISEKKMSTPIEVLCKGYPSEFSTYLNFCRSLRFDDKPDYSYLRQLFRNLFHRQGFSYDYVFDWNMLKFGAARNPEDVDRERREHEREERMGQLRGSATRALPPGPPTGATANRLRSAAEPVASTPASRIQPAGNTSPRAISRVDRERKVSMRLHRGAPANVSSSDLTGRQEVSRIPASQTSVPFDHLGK
PAK3, sequence (O75914 whole entry): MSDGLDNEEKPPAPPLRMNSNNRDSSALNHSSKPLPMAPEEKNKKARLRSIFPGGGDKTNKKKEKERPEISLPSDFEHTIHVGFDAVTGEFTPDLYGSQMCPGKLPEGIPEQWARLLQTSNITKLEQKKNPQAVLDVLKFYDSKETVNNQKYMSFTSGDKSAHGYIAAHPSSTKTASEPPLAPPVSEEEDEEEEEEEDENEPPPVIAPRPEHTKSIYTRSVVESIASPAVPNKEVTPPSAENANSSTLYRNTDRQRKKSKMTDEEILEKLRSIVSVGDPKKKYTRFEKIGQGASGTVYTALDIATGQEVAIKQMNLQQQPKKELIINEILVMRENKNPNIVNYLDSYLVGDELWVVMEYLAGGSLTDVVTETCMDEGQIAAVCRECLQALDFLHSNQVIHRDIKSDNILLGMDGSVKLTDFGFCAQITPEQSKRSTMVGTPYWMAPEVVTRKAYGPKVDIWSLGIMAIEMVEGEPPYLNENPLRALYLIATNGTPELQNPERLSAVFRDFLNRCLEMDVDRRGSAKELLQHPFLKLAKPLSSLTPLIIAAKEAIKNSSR
RIPK2, sequence (O43353 whole entry): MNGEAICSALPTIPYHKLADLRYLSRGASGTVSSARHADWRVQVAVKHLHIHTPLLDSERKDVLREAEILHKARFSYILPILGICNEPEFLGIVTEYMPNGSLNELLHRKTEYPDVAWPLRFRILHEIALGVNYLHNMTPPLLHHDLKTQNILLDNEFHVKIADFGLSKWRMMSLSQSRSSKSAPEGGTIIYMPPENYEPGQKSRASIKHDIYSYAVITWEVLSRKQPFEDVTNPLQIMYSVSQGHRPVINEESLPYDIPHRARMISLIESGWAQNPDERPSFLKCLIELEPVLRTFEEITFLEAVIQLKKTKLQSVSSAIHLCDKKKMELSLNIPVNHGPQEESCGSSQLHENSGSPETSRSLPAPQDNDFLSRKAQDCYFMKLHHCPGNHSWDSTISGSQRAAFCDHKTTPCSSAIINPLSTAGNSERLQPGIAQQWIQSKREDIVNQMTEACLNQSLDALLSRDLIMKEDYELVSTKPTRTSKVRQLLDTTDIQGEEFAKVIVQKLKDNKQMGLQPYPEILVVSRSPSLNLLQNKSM

For `Cc1ccc(NC(=O)c2cccc(C(F)(F)F)c2)cc1Nc1cc(-c2cccnc2)nc2[nH]ccc12` [HZX-02-059], the remaining binding at 1 µM on EGFR(G719S) was found to be 97%; at PAK3, 27%; in assay [1], 40%; at CSNK1E, 97%; at PAK1, 94%; on FLT3(D835V) it was 100%. For the same compound, the remaining binding at 1 µM came out at 100% on MRCKB; 100% on WNK4; 90% at CDKL5; 81% on YANK3; 88% at PRKCQ; 91% at CSK. Further, the remaining binding at 1 µM at MET was 94%; at IRAK1, 100%; on EPHA2, 4%; at RIPK2 it was 100%; on NEK5 it was 100%; at YANK1 it was 92%. Further, the remaining binding at 1 µM was 91% at RIOK2; 85% on DYRK1A; 81% at DCAMKL3; 66% on TIE2; 100% on MEK1; 64% on CIT.
